Assay [1] relates to S. aureus HG003. The experiment in a line: IM032 staphyloxanthin production inhibition. It counts as cell-based. The note with it: Staphylococcus aureus, MSSA. As to the method: (§1) This study aimed to evaluate IM032 for its in vitro efficacy to inhibit the production of staphyloxanthin in different strains of S. aureus.
(§2) The negative control was dimethyl sulfoxide (DMSO) which was used to prepare stock solutions and dilutions; positive control in this test was S. aureus strain FPR3757 treated with IM032.
(§3) The test item was dissolved at 44.9 mg/mL in DMSO at 37° C., aliquoted into several tubes, and stored at −20° C. until use. On the day of testing, a stock solution was serially diluted to testing concentrations with DMSO. All solutions were vortexed and mixed with a pipette to achieve homogeneity immediately before dilution. A correction factor for purity was not applied to the test item preparations.
(§4) Each test item solution (6 μL) was combined with 0.6 mL of S. aureus culture in brain heart infusion broth (CFU per well=1×10^7). 12-wells repeats were performed for each concentration in 96-well 2-mL plates. The plates were then incubated in a shaker at 37° C., 250 rpm for 24 hours. The bacteria were centrifuged at 4,000 rpm for 10 min. Next, the bacteria from 4-wells were combined and were washed twice with PBS. Staphyloxanthin was extracted with 300 μL of methanol in a water bath at 60° C. for 1 hour. After centrifugation, 100 μL of supernatant was transferred to a 96-well cell culture plate and OD450 was measured. The relative pigment production at each tested concentration was calculated as follows: […]
(§5) The IC50 for each test was determined based on the calculated inhibition ratio from above with Prism 6.0 by employing a non-linear regression (four parameters) fitting method with assigned bottom and top at 0.05 and 0.95 respectively. The IC50 presented is the best-fit value.
(§6) S. aureus strains (ATCC29213, HG003, Mu3, SH1000, and COL) were treated with IM032 at final concentrations of 4,000, 1,000, 250, 63, 16, 4 and 1 nM (FIG. 7A). S. aureus strains (JE2, USA300-3, LAC, ST239III and Newman) were treated with IM032 at final concentrations of 250, 63, 16, 4, 1, 0.2 and 0.06 nM (FIG. 7B). […] The determined IC50 values of the tested strains range from 1.2 to 70 nM (Tables 6 and 7).

Assay [2] deals with S. aureus Mu3. The experiment in a line: IM032 staphyloxanthin production inhibition. It is filed as cell-based. The note with it: Staphylococcus aureus. As to the method:
as §1, §2, §3, §4, §5, §6

In assay [3] the test system is S. aureus Newman. The experiment in a line: IM032 staphyloxanthin production inhibition. It is filed as cell-based. The note with it: Staphylococcus aureus, MSSA / NEWMAN. The protocol:
as §1, §2, §3, §4, §5, §6

The subject of assay [4] is S. aureus ATCC29213. The experiment in a line: IM032 staphyloxanthin production inhibition. It counts as cell-based. The note with it: Staphylococcus aureus, ATCC 29213 / MSSA. As to the method:
as §1, §2, §3, §4, §5, §6

Assay [5] concerns S. aureus FPR3757. The experiment in a line: IM032 staphyloxanthin production inhibition. As to conditions: Staphylococcus aureus. It counts as cell-based. As to the method:
as §1, §2, §3, §4, §5, §6

Assay [6] concerns S. aureus USA300. The experiment in a line: In vitro staphyloxanthin production inhibition by NP-16 analogues. As to conditions: S. aureus USA300, methanol extract OD 450 nm, 300 nM to 700 nM. It counts as cell-based, Staphylococcus aureus. The protocol:
Evaluation of NP-16 analogues in Staphyloxanthin production
The in vitro pigment inhibition studies were performed by S. aureus USA300 cultured in BHI with or without the presence of inhibitor compounds at 37° C. and 250 rpm for 36-48 hours. The bacteria were washed twice with PBS prior to the staphyloxanthin purification with methanol. The OD of the extracts were monitor at 450 nm using DTX880 multi-plate reader spectrophotometer (Beckman). The concentration range tested for the compounds were between 300 nM to 700 nM, and control groups were added with equal volume of DMSO.
The cytotoxicity of NP-16 and some of its analogues was tested against Raw 264.7 cells, and the cell tolerance of each compounds were documented in Table 3. Along with the in vitro staphyloxanthin production of the NP-16 analogues were being tested, the compounds can exert staphyloxanthin production inhibition. The staphyloxanthin from the overnight-cultured bacteria were extracted with methanol and quantified in via spectrophotometry. The results were presented in relative ratio to NP-16 in both the inhibition ratio as well as the TC50 (concentration for decreasing cell viability by 50%) in Table 3 (sample names correspond to those listed in Table 1).

The test system of assay [7] is methicillin-resistant S. aureus (MRSA). The experiment in a line: MRSA skin infection, wound closure. As to conditions: for wound healing compared with mupirocin and linezolid: 30 mg/kg oral BID for 7 days. It is filed as in vivo, mice. The protocol: FIG. 11B are photos from the top view of mice with skin infection caused by MRSA before (at Day 0) and after different treatments (at Day 7): top left received 2% mupirocin via topical BID for 7 days; top right received 100 mg/kg linezolid via oral BID for 7 days; bottom received 30 mg/kg IM032 via oral BID for 7 days.
Visual wound healing/closure in different treatment groups of mice can be observed in FIG. 11B.

`O=C(/C=C/c1ccccc1Br)Nc1ccc(S(=O)(=O)N2CCCCC2)cc1` [NP16-XL-016, 3-(6-bromophenyl)-N-[4-(1-piperidine-1-sulfonyl)phenyl]-acrylamide]: the IC50 (usually the concentration at which inhibition is half-maximal) was 46 nM in assay [1] (Table 6); 54.4 ± 4 nM in assay [1] (Table 8); 1.8 nM in assay [2] (MU3); 2.6 ± 1 nM in assay [2] (VISA); 21 nM in assay [3] (Table 7); 23.7 ± 1 nM in assay [3] (Table 8). Besides, the IC50 in assay [4] (Table 6) was determined as 18 nM; in assay [4] (Table 8), 30 ± 5 nM; in assay [5] (FPR3757, FPR3757, previous study), 17 nM; in assay [5] (MRSA / USA300, Table 8, USA300 (FPR-3757), CA-MRSA), 30.8 ± 5 nM; in assay [5] (MRSA, Table 6, first experiment, FPR3757, MRSA (CA), positive control), 20 nM; in assay [5] (MRSA, Table 7, second experiment, FPR3757, MRSA (CA), positive control) it was 28 nM. Moreover, in assay [6], the “Relative ratio to NP16 based on inhibition ratio” value is on record as 2.71. Moreover, the “wound healing compared with mupirocin and linezolid” value is “statistically significant improvement in wound healing” in assay [7] (listed as ALS-4) and “best visual wound healing” in assay [7] (listed as IM032). In addition, the “percentage of wound closure” value in assay [7] (30 mg/kg oral twice a day, Day 7) is reported as 63.8%.

The record behind these values is patent publication US11040949B2, “Compounds affecting pigment production and methods for treatment of bacterial diseases” (Versitech Limited, priority 2017, dated 2021).
